Measured values as given in US7138361B2, “Herbicidal heterocycles” (E. I. du Pont de Nemours and Company, priority 2000, dated 2006).

Assays:
Type in all cases: in vivo
[1] = system: duck salad (Heteranthera limosa); experiment: Test B flooded paddy test; details: Rate 1000 g/ha, scale of 0 to 100 where 0 is no effect and 100 is complete control, visually evaluated after 13 to 15 days
Description: (§1) At the same time, plants selected from these crop and weed species and also blackgrass (Alopecurus myosuroides), wheat (Triticum aestivum) and wild oat (Avena fatua) were treated with postemergence applications of test chemicals formulated in the same manner. Plants ranged in height from 2 to 18 cm (1- to 4-leaf stage) for postemergence treatments. Plant species in the flooded paddy test consisted of rice (Oryza saliva), smallflower flatsedge (Cyperus difformis), duck salad (Heteranthera limosa) and barnyardgrass (Echinochloa crus-galli) grown to the 2-leaf stage for testing. Treated plants and controls were maintained in a greenhouse for 13 to 15 days, after which time all species were compared to controls and visually evaluated. Plant response ratings, summarized in Table B, are based on a scale of 0 to 100 where 0 is no effect and 100 is complete control. A dash (-) response means no test result.

rice (Oryza saliva) [2] = experiment: Test B flooded paddy test; details: Rate 1000 g/ha, scale of 0 to 100 where 0 is no effect and 100 is complete control, visually evaluated after 13 to 15 days
Description: as §1

[3] = system: smallflower flatsedge (Cyperus difformis); experiment: Test B flooded paddy test; details: Rate 1000 g/ha, scale of 0 to 100 where 0 is no effect and 100 is complete control, visually evaluated after 13 to 15 days
Description: as §1

[4] = system: barnyardgrass (Echinochloa crus-galli); experiment: Test B flooded paddy test; details: Rate 1000 g/ha, scale of 0 to 100 where 0 is no effect and 100 is complete control, visually evaluated after 13 to 15 days
Description: as §1

[5] = system: morning glory (Ipomoea hederacea); experiment: Test B preemergence
Procedure, shortened: (§2)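 Preemergence: seeds planted and treated with test chemicals in non-phytotoxic solvent with surfactant; postemergence on plants 2–18 cm (1- to 4-leaf stage). Kept in greenhouse 13–15 days, then visually rated against controls on a 0 (no effect) to 100 (complete control) scale.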

rice (Oryza saliva) [6] = experiment: Test B preemergence
Procedure, shortened: as §2

[7] = system: cocklebur (Xanthium strumarium); experiment: Test B preemergence
Procedure, shortened: as §2

[8] = system: pigweed (Amaranthus retroflexus); experiment: Test B preemergence
Procedure, shortened: as §2

[9] = system: Surinam grass (Brachiaria decumbens); experiment: Test B preemergence
Procedure, shortened: as §2

[10] = system: barnyardgrass (Echinochloa crus-galli); experiment: Test B preemergence
Procedure, shortened: as §2

corn (Zea mays) [11] = experiment: Test B preemergence
Procedure, shortened: as §2

[12] = system: lambsquarters (Chenopodium album); experiment: Test B preemergence; details: scale 0 to 100, 0 no effect, 100 complete control
Procedure, shortened: as §2

[13] = system: giant foxtail (Setaria faberii); experiment: Test B preemergence
Procedure, shortened: as §2

[14] = system: crabgrass (Digitaria sanguinalis); experiment: Test B preemergence
Procedure, shortened: as §2

[15] = system: wheat (Triticum aestivum); experiment: Test B postemergence; details: 13 to 15 days
Procedure, shortened: as §2

[16] = system: morning glory (Ipomoea hederacea); experiment: Test B postemergence; details: 13 to 15 days
Procedure, shortened: as §2

[17] = system: cocklebur (Xanthium strumarium); experiment: Test B postemergence; details: 13 to 15 days
Procedure, shortened: as §2

[18] = system: blackgrass (Alopecurus myosuroides); experiment: Test B postemergence; details: 13 to 15 days
Procedure, shortened: as §2

[19] = system: pigweed (Amaranthus retroflexus); experiment: Test B postemergence; details: 13 to 15 days
Procedure, shortened: as §2

[20] = system: Surinam grass (Brachiaria decumbens); experiment: Test B postemergence; details: 13 to 15 days
Procedure, shortened: as §2

[21] = system: barnyardgrass (Echinochloa crus-galli); experiment: Test B postemergence; details: 13 to 15 days
Procedure, shortened: as §2

corn (Zea mays) [22] = experiment: Test B postemergence; details: 13 to 15 days
Procedure, shortened: as §2

[23] = system: lambsquarters (Chenopodium album); experiment: Test B postemergence; details: 13 to 15 days
Procedure, shortened: as §2

[24] = system: giant foxtail (Setaria faberii); experiment: Test B postemergence; details: 13 to 15 days
Procedure, shortened: as §2

[25] = system: velvetleaf (Abutilon theophrasti); experiment: Test B postemergence; details: 13 to 15 days
Procedure, shortened: as §2

wild oat (Avena fatua) = experiment: Test B postemergence; details: 13 to 15 days
Procedure, shortened: as §2

[26] = system: crabgrass (Digitaria sanguinalis); experiment: Test B postemergence; details: 13 to 15 days
Procedure, shortened: as §2

[27] = system: velvetleaf (Abutilon theophrasti); experiment: Test B preemergence
Procedure, shortened: as §2

[28] = Preemergence, Rate 500 g/ha, scale 0 to 100, 0 no effect, 100 complete control
[29] = preemergence, Rate 125 g/ha, scale 0 to 100, 0 no effect, 100 complete control
[30] = Rate 125 g/ha, scale 0 (no effect) to 100 (complete control)
[31] = Rate 500 g/ha, scale 0 to 100, 0 is no effect, 100 is complete control
[32] = preemergence, Rate 125 g/ha, scale of 0 to 100 where 0 is no effect and 100 is complete control, 13 to 15 days

O=C1C(n2cccn2)SCN1c1cccc(C(F)(F)F)c1 (stereo not drawn) [Compound 18]
Plant response rating, Ducksalad [1]: 0 | Plant response rating, Rice (rice (Oryza saliva) [2]): 0 | Plant response rating, Flatsedge [3]: 0 | Plant response rating, Barnyardgrass [4]: 0 | Plant response rating, Morningglory [5, 28]: 0 | Plant response rating, Morningglory [5, 29]: 0 | Plant response rating, Rice (rice (Oryza saliva) [6]; [28]): 0 | Plant response rating, Rice (rice (Oryza saliva) [6]; [29]): 0 | Plant response rating, Cocklebur [7, 28]: 0 | Plant response rating, Cocklebur [7, 29]: 0 | Plant response rating, Pigweed [8, 28]: 0 | Plant response rating, Pigweed [8, 29]: 0 | Plant response rating, Surinam grass [9, 28]: 0 | Plant response rating, Surinam grass [9, 29]: 0 | Plant response rating, Barnyardgrass [10, 28]: 0 | Plant response rating, Barnyardgrass [10, 29]: 0 | Plant response rating, Corn (corn (Zea mays) [11]; [28]): 0 | Plant response rating, Corn (corn (Zea mays) [11]; [29]): 0 | Plant response rating, Lambsquarters ([12]; preemergence, Rate 125 g/ha): 0 | Plant response rating, Foxtail, Giant [13, 28]: 0 | Plant response rating, Foxtail, Giant [13, 29]: 0 | Plant response rating, Crabgrass [14, 28]: 0 | Plant response rating, Crabgrass [14, 29]: 0 | Plant response rating, Wheat [15, 30]: 0 | Plant response rating, Wheat [15, 31]: 0 | Plant response rating, Morningglory [16, 30]: 10 | Plant response rating, Morningglory [16, 31]: 10 | Plant response rating, Cocklebur [17, 30]: 0 | Plant response rating, Cocklebur [17, 31]: 20 | Plant response rating, Blackgrass [18, 30]: 0 | Plant response rating, Blackgrass [18, 31]: 0 | Plant response rating, Pigweed [19, 30]: 0 | Plant response rating, Pigweed [19, 31]: 0 | Plant response rating, Surinam grass [20, 30]: 0 | Plant response rating, Surinam grass [20, 31]: 0 | Plant response rating, Barnyardgrass [21, 30]: 0 | Plant response rating, Barnyardgrass [21, 31]: 0 | Plant response rating, Corn (corn (Zea mays) [22]; [30]): 0 | Plant response rating, Corn (corn (Zea mays) [22]; [31]): 0 | Plant response rating, Lambsquarters [23, 30]: 60 | Plant response rating, Lambsquarters [23, 31]: 70 | Plant response rating, Foxtail, Giant [24, 30]: 0 | Plant response rating, Foxtail, Giant [24, 31]: 0 | Plant response rating, Velvetleaf [25, 30]: 0 | Plant response rating, Velvetleaf [25, 31]: 20 | Plant response rating, Wild Oat (wild oat (Avena fatua); [30]): 0 | Plant response rating, Wild Oat (wild oat (Avena fatua); [31]): 0 | Plant response rating, Crabgrass [26, 30]: 0 | Plant response rating, Crabgrass [26, 31]: 0

CC(C)(C)c1ccn(C2C(=O)N(c3cccc(C(F)(F)F)c3)C[S+]2[O-])n1 (stereo not drawn) [Compound 29]
Plant response rating, Ducksalad [1]: 0 | Plant response rating, Rice (rice (Oryza saliva) [2]): 0 | Plant response rating, Flatsedge [3]: 30 | Plant response rating, Barnyardgrass [4]: 0 | Plant response rating, Morningglory [5, 28]: 30 | Plant response rating, Rice (rice (Oryza saliva) [6]; [28]): 0 | Plant response rating, Cocklebur [7, 28]: 0 | Plant response rating, Cocklebur [7, 29]: 0 | Plant response rating, Pigweed [8, 28]: 70 | Plant response rating, Surinam grass [9, 28]: 0 | Plant response rating, Surinam grass [9, 29]: 0 | Plant response rating, Barnyardgrass [10, 28]: 20 | Plant response rating, Barnyardgrass [10, 29]: 0 | Plant response rating, Corn (corn (Zea mays) [11]; [28]): 0 | Plant response rating, Corn (corn (Zea mays) [11]; [29]): 0 | Plant response rating, Lambsquarters ([12]; Preemergence, Rate 500 g/ha): 100 | Plant response rating, Lambsquarters ([12]; preemergence, Rate 125 g/ha): 0 | Plant response rating, Foxtail, Giant [13, 28]: 0 | Plant response rating, Foxtail, Giant [13, 29]: 0 | Plant response rating, Velvetleaf [27, 28]: 20 | Plant response rating, Crabgrass [14, 28]: 0 | Plant response rating, Crabgrass [14, 29]: 0 | Plant response rating, Wheat [15, 30]: 0 | Plant response rating, Wheat [15, 31]: 0 | Plant response rating, Morningglory [16, 30]: 0 | Plant response rating, Morningglory [16, 31]: 0 | Plant response rating, Cocklebur [17, 30]: 0 | Plant response rating, Cocklebur [17, 31]: 0 | Plant response rating, Blackgrass [18, 30]: 0 | Plant response rating, Blackgrass [18, 31]: 0 | Plant response rating, Pigweed [19, 30]: 30 | Plant response rating, Pigweed [19, 31]: 30 | Plant response rating, Surinam grass [20, 30]: 0 | Plant response rating, Surinam grass [20, 31]: 0 | Plant response rating, Barnyardgrass [21, 30]: 0 | Plant response rating, Barnyardgrass [21, 31]: 0 | Plant response rating, Corn (corn (Zea mays) [22]; [30]): 0 | Plant response rating, Corn (corn (Zea mays) [22]; [31]): 0 | Plant response rating, Lambsquarters [23, 30]: 0 | Plant response rating, Lambsquarters [23, 31]: 20 | Plant response rating, Foxtail, Giant [24, 30]: 0 | Plant response rating, Foxtail, Giant [24, 31]: 0 | Plant response rating, Velvetleaf [25, 30]: 0 | Plant response rating, Velvetleaf [25, 31]: 20 | Plant response rating, Wild Oat (wild oat (Avena fatua); [30]): 0 | Plant response rating, Wild Oat (wild oat (Avena fatua); [31]): 0 | Plant response rating, Crabgrass [26, 30]: 0 | Plant response rating, Crabgrass [26, 31]: 50

CCOc1ccn(C2CCN(c3cccc(C(F)(F)F)c3)C2=O)n1 (stereo not drawn) [Compound 61]
Plant response rating, Ducksalad [1]: 30 | Plant response rating, Rice (rice (Oryza saliva) [2]): 0 | Plant response rating, Flatsedge [3]: 20 | Plant response rating, Barnyardgrass [4]: 0 | Plant response rating, Morningglory [5, 28]: 0 | Plant response rating, Morningglory [5, 32]: 0 | Plant response rating, Rice (rice (Oryza saliva) [6]; [28]): 0 | Plant response rating, Rice (rice (Oryza saliva) [6]; [32]): 0 | Plant response rating, Cocklebur [7, 28]: 0 | Plant response rating, Cocklebur [7, 32]: 0 | Plant response rating, Pigweed [8, 28]: 0 | Plant response rating, Pigweed [8, 32]: 0 | Plant response rating, Surinam grass [9, 28]: 0 | Plant response rating, Surinam grass [9, 32]: 0 | Plant response rating, Barnyardgrass [10, 28]: 0 | Plant response rating, Barnyardgrass [10, 32]: 0 | Plant response rating, Corn (corn (Zea mays) [11]; [28]): 0 | Plant response rating, Corn (corn (Zea mays) [11]; [32]): 0 | Plant response rating, Foxtail, Giant [13, 28]: 0 | Plant response rating, Foxtail, Giant [13, 32]: 0 | Plant response rating, Velvetleaf [27, 28]: 0 | Plant response rating, Velvetleaf [27, 32]: 0 | Plant response rating, Crabgrass [14, 28]: 0 | Plant response rating, Crabgrass [14, 32]: 0 | Plant response rating, Wheat [15, 30]: 0 | Plant response rating, Wheat [15, 31]: 0 | Plant response rating, Morningglory [16, 30]: 0 | Plant response rating, Morningglory [16, 31]: 0 | Plant response rating, Cocklebur [17, 30]: 0 | Plant response rating, Cocklebur [17, 31]: 0 | Plant response rating, Blackgrass [18, 30]: 0 | Plant response rating, Blackgrass [18, 31]: 0 | Plant response rating, Pigweed [19, 30]: 0 | Plant response rating, Pigweed [19, 31]: 0 | Plant response rating, Surinam grass [20, 30]: 0 | Plant response rating, Surinam grass [20, 31]: 0 | Plant response rating, Barnyardgrass [21, 30]: 0 | Plant response rating, Barnyardgrass [21, 31]: 0 | Plant response rating, Corn (corn (Zea mays) [22]; [30]): 0 | Plant response rating, Corn (corn (Zea mays) [22]; [31]): 0 | Plant response rating, Lambsquarters [23, 30]: 0 | Plant response rating, Lambsquarters [23, 31]: 0 | Plant response rating, Foxtail, Giant [24, 30]: 0 | Plant response rating, Foxtail, Giant [24, 31]: 0 | Plant response rating, Velvetleaf [25, 30]: 0 | Plant response rating, Velvetleaf [25, 31]: 0 | Plant response rating, Wild Oat (wild oat (Avena fatua); [30]): 0 | Plant response rating, Wild Oat (wild oat (Avena fatua); [31]): 0 | Plant response rating, Crabgrass [26, 30]: 0 | Plant response rating, Crabgrass [26, 31]: 0
